Laboratory results taken from US11542259B2, “Compounds for the treatment of kinase-dependent disorders” (Exelixis, Inc., priority 2018, dated 2023).
Structures can show the parent of a compound that is named as a salt.

Legend:
Assay type in all cases: cell-based
AXL = AXL (Homo sapiens (Human), UniProt P30530); assay: AXL autophosphorylation ELISA in A-172 cells; details: cellular, Gas6 stimulated
Procedure, shortened: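 Serum-starved (24 h) A-172 glioblastoma cells pretreated 1 h with compounds (8-point curve, 0.3% DMSO), then stimulated 15 min with 1 μg/mL Gas6. Lysate phospho-AXL measured by sandwich ELISA against a phospho-AXL standard; IC50 from 4-parameter logistic fit between DMSO and reference-inhibitor controls.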

Mer = Mer (Homo sapiens (Human), UniProt Q12866); assay: Mer autophosphorylation ELISA in transient transfected 293A cells; details: cellular, MERTK transfected 293A cells
Sequence of Mer (Q12866 21-999): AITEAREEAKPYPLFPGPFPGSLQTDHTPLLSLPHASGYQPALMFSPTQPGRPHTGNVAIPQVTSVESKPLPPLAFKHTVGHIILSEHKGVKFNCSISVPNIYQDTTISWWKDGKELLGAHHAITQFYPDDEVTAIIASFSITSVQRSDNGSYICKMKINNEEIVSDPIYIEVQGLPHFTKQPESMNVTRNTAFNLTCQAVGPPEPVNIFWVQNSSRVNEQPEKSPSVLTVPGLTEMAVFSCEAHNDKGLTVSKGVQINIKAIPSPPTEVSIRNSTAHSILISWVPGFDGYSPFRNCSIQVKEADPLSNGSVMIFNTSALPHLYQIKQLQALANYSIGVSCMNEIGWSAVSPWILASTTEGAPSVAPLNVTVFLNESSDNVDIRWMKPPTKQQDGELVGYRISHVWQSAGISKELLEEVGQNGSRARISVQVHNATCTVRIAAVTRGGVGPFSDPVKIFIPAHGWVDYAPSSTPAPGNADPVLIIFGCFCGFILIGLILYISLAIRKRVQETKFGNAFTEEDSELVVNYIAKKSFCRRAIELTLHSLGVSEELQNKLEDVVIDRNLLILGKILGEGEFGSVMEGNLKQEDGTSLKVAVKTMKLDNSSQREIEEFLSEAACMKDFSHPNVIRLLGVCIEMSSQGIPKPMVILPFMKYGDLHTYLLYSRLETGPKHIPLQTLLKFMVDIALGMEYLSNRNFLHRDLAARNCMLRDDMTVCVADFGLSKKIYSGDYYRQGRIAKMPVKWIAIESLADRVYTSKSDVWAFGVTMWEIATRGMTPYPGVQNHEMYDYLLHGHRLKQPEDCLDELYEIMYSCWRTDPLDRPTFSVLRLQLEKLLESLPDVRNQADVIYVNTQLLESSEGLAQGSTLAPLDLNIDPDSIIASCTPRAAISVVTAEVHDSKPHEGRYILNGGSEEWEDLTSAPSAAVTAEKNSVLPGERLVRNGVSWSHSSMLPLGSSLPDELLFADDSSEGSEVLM
Method: 293A cells (Thermo Fisher #R70507) were seeded at 1.5×10^6 cells/well onto 100 mm dish (Greiner #664169), in DMEM (Thermo Fisher #11995-040) containing 10% FBS (Thermo Fisher #26140-079), 1% MEM NEAA (Thermo Fisher #11140-050), 1% GlutaMax (Thermo Fisher #35050-061), and 1% Penicillin Streptomycin (Thermo Fisher #15140-122). 293A cells were incubated at 37° C., 5% CO2 for 24 h and then transfected with 6 μg MERTK DNA (Genecopoeia #EX-Z8208-M02) using TransIT LT1 transfection reagent (Mirus-Bio #MIR2305). After 24 h incubation, the transfected 293A cells were seeded at 1×10^5 cells/well onto 96-well plates (Corning #3904) in DMEM growth medium overnight. Test compounds were serially diluted to produce an 8-point dose curve in fresh serum-free medium to a final concentration of 0.3% DMSO (vehicle) and added to the cells and incubated for 1 h. Cells were then immediately lysed with 150 μL of cold 1× lysis buffer [20 mM Tris, 137 mM sodium chloride, 2 mM EDTA, 10% glycerol, 1% NP-40 alternative, 1 mM activated sodium orthovanadate, 1 mM PefaBloc SC (Sigma-Aldrich #11429868001), protease/phosphatase inhibitor tablet (Thermo Fisher #A32959)]. Lysates were clarified by centrifugation and 50 μL/well added into the human phospho-Mer DuoSet IC ELISA (R&D Systems #DYC2579-2). Assay was performed according to manufacturer's instructions and sample phospho-Mer concentrations were extrapolated using human phospho-Mer control (R&D Systems #841793) as a standard. Positive control wells (100% activity) contained DMSO-treated cell lysates. Negative control wells (0% activity) contained reference inhibitor-treated cell lysates. IC50 values were calculated by nonlinear regression analysis using a 4-parameter logistic curve fit in ActivityBase XE (IDBS).

Met = Met (Homo sapiens (Human), UniProt P08581); assay: Met autophosphorylation ELISA in PC-3 cells; details: cellular, HGF stimulated, read-out: c-Met IC50
Sequence of Met (P08581 25-1390): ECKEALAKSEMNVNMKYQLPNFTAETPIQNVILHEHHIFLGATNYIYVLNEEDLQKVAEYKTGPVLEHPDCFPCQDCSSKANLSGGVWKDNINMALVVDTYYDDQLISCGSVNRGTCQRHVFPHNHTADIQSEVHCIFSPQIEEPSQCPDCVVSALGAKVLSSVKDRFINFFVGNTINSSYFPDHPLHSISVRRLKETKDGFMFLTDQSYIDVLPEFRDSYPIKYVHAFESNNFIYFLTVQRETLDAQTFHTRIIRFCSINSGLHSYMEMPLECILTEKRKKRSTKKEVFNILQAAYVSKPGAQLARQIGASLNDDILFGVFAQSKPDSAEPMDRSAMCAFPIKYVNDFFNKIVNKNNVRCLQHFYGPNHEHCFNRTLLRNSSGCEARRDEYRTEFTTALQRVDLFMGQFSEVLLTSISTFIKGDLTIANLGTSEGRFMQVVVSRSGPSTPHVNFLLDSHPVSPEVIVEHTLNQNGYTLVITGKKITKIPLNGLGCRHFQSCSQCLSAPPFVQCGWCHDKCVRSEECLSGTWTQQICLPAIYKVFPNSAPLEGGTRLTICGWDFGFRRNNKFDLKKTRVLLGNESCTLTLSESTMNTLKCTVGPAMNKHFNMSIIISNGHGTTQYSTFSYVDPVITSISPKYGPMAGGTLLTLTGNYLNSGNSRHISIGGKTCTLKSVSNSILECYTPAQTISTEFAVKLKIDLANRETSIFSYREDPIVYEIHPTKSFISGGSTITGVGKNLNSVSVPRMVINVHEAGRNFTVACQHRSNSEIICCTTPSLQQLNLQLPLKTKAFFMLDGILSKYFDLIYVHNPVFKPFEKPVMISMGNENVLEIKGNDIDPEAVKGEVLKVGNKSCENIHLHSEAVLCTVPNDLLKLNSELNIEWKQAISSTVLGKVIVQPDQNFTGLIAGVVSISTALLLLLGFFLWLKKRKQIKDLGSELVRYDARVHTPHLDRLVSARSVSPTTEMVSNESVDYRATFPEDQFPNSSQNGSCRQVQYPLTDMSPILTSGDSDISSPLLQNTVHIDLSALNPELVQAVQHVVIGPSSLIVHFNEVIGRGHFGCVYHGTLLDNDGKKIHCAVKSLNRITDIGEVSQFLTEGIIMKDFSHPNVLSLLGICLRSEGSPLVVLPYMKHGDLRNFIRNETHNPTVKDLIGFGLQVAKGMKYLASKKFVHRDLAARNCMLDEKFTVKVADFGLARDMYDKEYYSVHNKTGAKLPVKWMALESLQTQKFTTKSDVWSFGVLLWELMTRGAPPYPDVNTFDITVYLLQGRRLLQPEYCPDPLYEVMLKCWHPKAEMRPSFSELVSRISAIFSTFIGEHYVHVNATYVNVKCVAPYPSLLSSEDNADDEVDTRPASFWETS
Procedure, shortened: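 PC-3 cells serum-starved 3 h, treated 1 h with 8-point compound series (0.3% DMSO), then stimulated with 100 ng/mL human HGF for 10 min. Lysate phospho-Met (panTyr) measured by sandwich ELISA; IC50 from 4-parameter logistic fit against DMSO and reference-inhibitor controls.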

KDR = KDR (Homo sapiens (Human), UniProt P35968); assay: KDR autophosphorylation ELISA in HUVEC cells; details: cellular, VEGF165 stimulated
Sequence of KDR (P35968 20-1356): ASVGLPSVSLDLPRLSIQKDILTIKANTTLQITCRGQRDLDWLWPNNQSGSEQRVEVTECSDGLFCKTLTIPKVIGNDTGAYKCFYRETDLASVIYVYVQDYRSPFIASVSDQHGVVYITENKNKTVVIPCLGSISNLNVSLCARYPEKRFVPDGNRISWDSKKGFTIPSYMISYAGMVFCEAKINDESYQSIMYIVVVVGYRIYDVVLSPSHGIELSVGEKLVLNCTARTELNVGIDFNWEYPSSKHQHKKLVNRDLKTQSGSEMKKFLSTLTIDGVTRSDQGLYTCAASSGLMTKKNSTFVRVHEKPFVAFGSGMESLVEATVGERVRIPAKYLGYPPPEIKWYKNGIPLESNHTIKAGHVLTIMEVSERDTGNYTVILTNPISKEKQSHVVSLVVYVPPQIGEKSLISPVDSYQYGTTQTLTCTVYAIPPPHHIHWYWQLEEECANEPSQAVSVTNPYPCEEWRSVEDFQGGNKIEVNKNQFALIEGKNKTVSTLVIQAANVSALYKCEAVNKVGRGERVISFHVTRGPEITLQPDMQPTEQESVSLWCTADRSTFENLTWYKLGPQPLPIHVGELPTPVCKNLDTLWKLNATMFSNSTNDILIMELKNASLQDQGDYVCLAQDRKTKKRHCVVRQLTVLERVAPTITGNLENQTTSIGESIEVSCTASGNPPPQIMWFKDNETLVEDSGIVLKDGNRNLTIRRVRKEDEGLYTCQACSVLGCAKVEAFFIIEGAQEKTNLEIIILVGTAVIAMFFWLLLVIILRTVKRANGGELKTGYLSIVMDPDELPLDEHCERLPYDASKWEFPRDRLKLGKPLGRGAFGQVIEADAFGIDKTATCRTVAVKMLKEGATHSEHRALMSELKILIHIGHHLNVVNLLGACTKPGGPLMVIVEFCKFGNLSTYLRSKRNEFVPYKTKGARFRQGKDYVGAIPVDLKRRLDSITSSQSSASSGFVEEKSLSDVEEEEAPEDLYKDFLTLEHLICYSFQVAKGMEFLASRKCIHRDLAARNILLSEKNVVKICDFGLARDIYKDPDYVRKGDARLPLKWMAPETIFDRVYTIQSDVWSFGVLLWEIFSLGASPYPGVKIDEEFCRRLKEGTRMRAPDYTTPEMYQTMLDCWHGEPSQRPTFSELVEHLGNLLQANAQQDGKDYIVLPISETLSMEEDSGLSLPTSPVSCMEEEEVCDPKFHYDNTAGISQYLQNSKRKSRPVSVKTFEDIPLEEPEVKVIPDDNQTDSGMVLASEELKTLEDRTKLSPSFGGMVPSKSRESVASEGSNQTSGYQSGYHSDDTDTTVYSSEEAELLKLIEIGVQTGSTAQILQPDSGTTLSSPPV
Procedure, shortened: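 HUVECs grown 24 h at 37 °C, then serum-starved 24 h, were preincubated 1 h with an 8-point compound series (0.3% DMSO) and stimulated with 100 ng/mL human VEGF165 for 5 min. Phospho-KDR in lysates was measured by sandwich ELISA against a phospho-KDR standard; IC50 from 4-parameter logistic fit.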

Sequence of AXL (P30530 26-894): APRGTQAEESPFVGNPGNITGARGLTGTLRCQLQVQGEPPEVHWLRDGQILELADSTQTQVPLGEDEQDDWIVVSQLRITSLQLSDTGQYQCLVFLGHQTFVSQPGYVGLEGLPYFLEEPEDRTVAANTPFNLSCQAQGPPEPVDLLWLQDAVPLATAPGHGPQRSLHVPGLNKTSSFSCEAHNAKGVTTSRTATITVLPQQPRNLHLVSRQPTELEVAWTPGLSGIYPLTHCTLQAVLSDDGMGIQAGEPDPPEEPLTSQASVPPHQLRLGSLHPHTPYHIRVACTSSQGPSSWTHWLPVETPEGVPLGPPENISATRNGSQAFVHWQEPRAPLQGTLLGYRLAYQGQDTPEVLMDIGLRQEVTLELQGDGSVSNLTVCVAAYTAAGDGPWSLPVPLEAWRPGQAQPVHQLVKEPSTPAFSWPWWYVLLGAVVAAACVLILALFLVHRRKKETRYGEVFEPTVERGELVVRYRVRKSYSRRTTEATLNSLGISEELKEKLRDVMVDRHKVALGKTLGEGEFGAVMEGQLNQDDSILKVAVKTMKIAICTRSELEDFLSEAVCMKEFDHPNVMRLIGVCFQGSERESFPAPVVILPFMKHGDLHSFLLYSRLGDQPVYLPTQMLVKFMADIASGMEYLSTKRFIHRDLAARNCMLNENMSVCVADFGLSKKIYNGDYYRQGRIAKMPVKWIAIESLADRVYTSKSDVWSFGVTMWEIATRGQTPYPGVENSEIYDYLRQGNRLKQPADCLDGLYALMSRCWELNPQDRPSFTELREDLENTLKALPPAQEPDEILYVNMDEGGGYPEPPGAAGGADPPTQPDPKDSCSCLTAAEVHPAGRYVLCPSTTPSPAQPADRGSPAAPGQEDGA

Row | SMILES | IC50 (AXL) [nM] | IC50 (Mer) [nM] | IC50 (Met) [nM] | IC50 (KDR) [nM]
1 | CNC(=O)Nc1cc2c(Oc3ccc(NC(=O)C4(C(=O)Nc5ccc(F)cc5)CC4)cc3)ccnc2cc1OC [Compound 279, 1-N′-(4-Fluorophenyl)-1-N-[4-[7-methoxy-6-(methylcarbamoylamino)-quinolin-4-yl]oxyphenyl]cyclopropane-1,1-dicarboxamide] | ≤ 10 | ≤ 10 | 10 to 100 | ≤ 10
2 | COC(=O)Nc1cc2c(Oc3ccc(NC(=O)C4(C(=O)Nc5ccc(F)cc5)CC4)cc3)ccnc2cc1OC [Compound 280, Methyl N-[4-[4-[[1-[(4-fluorophenyl)carbamoyl]cyclopropane-carbonyl]amino]phenoxy]-7-methoxyquinolin-6-yl]carbamate] | ≤ 10 | ≤ 10 | 10 to 100 | ≤ 10
3 | CCc1noc(-c2cc3c(Oc4ccc(NC(=O)C5(C(=O)Nc6ccc(F)cc6)CC5)cc4)ccnc3cc2OC)n1 [Compound 283, 1-N-[4-[6-(3-Ethyl-1,2,4-oxadiazol-5-yl)-7-methoxyquinolin-4-yl]oxyphenyl]-1-N′-(4-fluorophenyl)cyclopropane-1,1-dicarboxamide Hydrochloride] | 10 to 100 | 10 to 100 | 10 to 100 | 10 to 100
4 | CNC(=O)c1cc2nccc(Oc3ccc(NC(=O)C4(C(=O)Nc5ccc(F)cc5)CC4)cc3F)c2cc1C [Compound 289, 1-N′-[3-Fluoro-4-[6-methyl-7-(methylcarbamoyl)quinolin-4-yl]oxyphenyl]-1-N-(4-fluorophenyl)cyclopropane-1,1-dicarboxamide] | 10 to 100 | 10 to 100 | 10 to 100 | 10 to 100
5 | CNC(=O)c1cc2nccc(Oc3cc(F)c(NC(=O)C4(C(=O)Nc5ccc(F)cc5)CC4)cc3F)c2cc1C [Compound 290, 1-N′-[2,5-Difluoro-4-[6-methyl-7-(methylcarbamoyl)quinolin-4-yl]oxyphenyl]-1-N-(4-fluorophenyl)cyclopropane-1,1-dicarboxamide] | ≤ 10 | ≤ 10 | ≤ 10 | 100 to 300
6 | CNC(=O)c1cc2nccc(Oc3cc(Cl)c(NC(=O)C4(C(=O)Nc5ccc(F)cc5)CC4)cc3F)c2cc1C [Compound 291, 1-N′-[2-Chloro-5-fluoro-4-[6-methyl-7-(methylcarbamoyl)quinolin-4-yl]oxyphenyl]-1-N-(4-fluorophenyl)cyclopropane-1,1-dicarboxamide] | 10 to 100 | 10 to 100 | 10 to 100 | > 300
7 | CNC(=O)c1cc2nccc(Oc3c(F)cc(NC(=O)C4(C(=O)Nc5ccc(F)cc5)CC4)c(F)c3F)c2cc1C [Compound 292, 1-N-(4-Fluorophenyl)-1-N′-[2,3,5-trifluoro-4-[6-methyl-7-(methylcarbamoyl)quinolin-4-yl]oxyphenyl]cyclopropane-1,1-dicarboxamide] | 10 to 100 | 10 to 100 | 10 to 100 | > 300
8 | Cc1cc2c(Oc3ccc(NC(=O)C4(C(=O)Nc5ccc(F)cc5)CC4)cc3F)ccnc2cc1C(N)=O [Compound 293, 1-N′-[4-(7-Carbamoyl-6-methylquinolin-4-yl)oxy-3-fluorophenyl]-1-N-(4-fluorophenyl)cyclopropane-1,1-dicarboxamide] | 10 to 100 | 10 to 100 | 10 to 100 | 10 to 100
9 | Cc1cc2c(Oc3cc(F)c(NC(=O)C4(C(=O)Nc5ccc(F)cc5)CC4)cc3F)ccnc2cc1C(N)=O [Compound 294, 1-N′-[4-(7-Carbamoyl-6-methylquinolin-4-yl)oxy-2,5-difluorophenyl]-1-N-(4-fluorophenyl)cyclopropane-1,1-dicarboxamide] | ≤ 10 | ≤ 10 | ≤ 10 | 10 to 100
10 | O=C(NOCCO)c1ccc2c(Oc3ccc(NC(=O)C4(C(=O)Nc5ccc(F)cc5)CC4)cc3F)ccnc2c1 [Compound 301, 1-N′-[3-Fluoro-4-[7-(2-hydroxyethoxycarbamoyl)quinolin-4-yl]oxyphenyl]-1-N-(4-fluorophenyl)cyclopropane-1,1-dicarboxamide] | 10 to 100 | 10 to 100 | 10 to 100 | 10 to 100
11 | O=C(NOCCO)c1ccc2c(Oc3cc(F)c(NC(=O)C4(C(=O)Nc5ccc(F)cc5)CC4)cc3F)ccnc2c1 [Compound 302, 1-N′-[2,5-Difluoro-4-[7-(2-hydroxyethoxycarbamoyl)quinolin-4-yl]oxyphenyl]-1-N-(4-fluorophenyl)cyclopropane-1,1-dicarboxamide] | 10 to 100 | 100 to 300 | ≤ 10 | 100 to 300
